Data as given in patent publication US11236102B2, “Oxabicycloheptane prodrugs” (Lixte Biotechnology, Inc., priority 2015, dated 2022).

Experiment: in vivo
Parameters: species or system SD rats
Details: rat, in vivo, iv, 1 mg/kg
Method: 105 was dissolved in 4% NaHCO3 in saline for IV administration. The detailed procedure of dosing solution preparation was presented in Appendix I.
Thirteen (13) animals were placed on the study. The animals in IV arm were free access to food and water. One extra animal was used for blank liver and plasma generation (5 mL per animal). The resulting blank liver and plasma was then applied to the development of bioanalytical method and sample bioanalysis for the entire study.
The IV injection was conducted via foot dorsal vein. Animals were free access to food and water before dose.
The animal is restrained manually. Approximately 150 μL of blood/time point is collected into sodium heparin tube via cardiac puncture for terminal bleeding (anesthetized under carbon dioxide). Blood sample will be put on ice and centrifuged to obtain plasma sample (2000 g, 5 min under 4° C.) within 10 minutes.
The animal will be euthanized with carbon dioxide inhalation. Open abdominal cavity with scissor to expose internal organs. Hold the carcass in an upright position and allow the organs to fall forward. Cut the connective tissues and remove the organs. Then the organs are rinsed with cold saline, dried on filtrate paper, placed into a screw-top tube and weighed, snap frozen by placing into dry-ice immediately.
Plasma and liver samples were stored at approximately −80° C. until analysis. The backup samples will be discarded after three weeks after in-life completion unless requested. The unused dosing solutions will be discarded within three weeks after completion of the study
Software: The PK parameters were determined by non-compartmental model of non-compartmental analysis tool, Pharsight Phoenix WinNonlin® 6.2 software.
Concentration data within 80%-120% of LLOQ was considered within normal instrumental variation and presented in the results. Terminal t1/2 calculation: Time points were automatic selected by “best fit” model for terminal half life estimation as the first option. Manual selection was applied when “best fit” could not well define the terminal phase.

## O=C(O)C1C2CCC(O2)C1C(=O)O (centres unmarked) [Endothal, 7-oxabicyclo[2.2.1]heptane-2,3-dicarboxylic acid]
  AUC(0-last) in liver: 3152 ng·h/g
  AUC(0-∞) in liver: 4896 ng·h/g
